Experimental data published in ChEMBL document CHEMBL1909046, “DrugMatrix in vitro pharmacology data”.

How the values were obtained:
Substance-K receptor = molecular target: T1, Substance-K receptor (Homo sapiens, UniProt P21452); format: cell membranes, CHO, Membrane; details: cho; further: in other assays of this panel Not Active means under 50% inhibition at 10 µM
T1 sequence (P21452 whole entry): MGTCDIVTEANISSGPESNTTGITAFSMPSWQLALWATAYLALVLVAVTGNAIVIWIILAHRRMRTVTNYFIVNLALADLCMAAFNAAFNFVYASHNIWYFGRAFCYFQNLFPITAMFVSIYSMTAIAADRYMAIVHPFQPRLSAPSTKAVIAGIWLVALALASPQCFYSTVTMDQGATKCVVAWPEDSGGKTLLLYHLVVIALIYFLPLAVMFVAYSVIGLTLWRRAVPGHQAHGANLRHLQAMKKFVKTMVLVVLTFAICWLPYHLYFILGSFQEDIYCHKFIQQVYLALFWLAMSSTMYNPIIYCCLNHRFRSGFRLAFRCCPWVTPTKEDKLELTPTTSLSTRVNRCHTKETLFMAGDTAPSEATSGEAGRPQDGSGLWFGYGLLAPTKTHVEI

[1] = molecular target: T2, Vasoactive intestinal polypeptide receptor 1 (Homo sapiens, UniProt P32241); format: cell membranes, Membrane; details: ht-29; further: in other assays of this panel Not Active means under 50% inhibition at 10 µM
T2 sequence (P32241 whole entry): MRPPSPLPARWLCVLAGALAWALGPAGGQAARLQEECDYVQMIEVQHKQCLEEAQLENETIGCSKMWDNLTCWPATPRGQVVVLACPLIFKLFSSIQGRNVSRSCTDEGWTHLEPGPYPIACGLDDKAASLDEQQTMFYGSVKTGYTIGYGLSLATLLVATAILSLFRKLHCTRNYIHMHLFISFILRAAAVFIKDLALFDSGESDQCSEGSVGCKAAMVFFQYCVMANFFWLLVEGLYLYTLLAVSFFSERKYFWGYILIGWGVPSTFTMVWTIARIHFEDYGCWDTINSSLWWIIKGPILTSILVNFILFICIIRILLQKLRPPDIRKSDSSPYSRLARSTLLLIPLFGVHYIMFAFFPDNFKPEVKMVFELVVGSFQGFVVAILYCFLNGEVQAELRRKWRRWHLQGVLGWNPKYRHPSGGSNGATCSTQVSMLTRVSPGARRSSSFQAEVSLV

Estrogen receptor = molecular target: T3, Estrogen receptor (Homo sapiens, UniProt P03372); details: sf9; further: in other assays of this panel Not Active means under 50% inhibition at 10 µM
T3 sequence (P03372 whole entry): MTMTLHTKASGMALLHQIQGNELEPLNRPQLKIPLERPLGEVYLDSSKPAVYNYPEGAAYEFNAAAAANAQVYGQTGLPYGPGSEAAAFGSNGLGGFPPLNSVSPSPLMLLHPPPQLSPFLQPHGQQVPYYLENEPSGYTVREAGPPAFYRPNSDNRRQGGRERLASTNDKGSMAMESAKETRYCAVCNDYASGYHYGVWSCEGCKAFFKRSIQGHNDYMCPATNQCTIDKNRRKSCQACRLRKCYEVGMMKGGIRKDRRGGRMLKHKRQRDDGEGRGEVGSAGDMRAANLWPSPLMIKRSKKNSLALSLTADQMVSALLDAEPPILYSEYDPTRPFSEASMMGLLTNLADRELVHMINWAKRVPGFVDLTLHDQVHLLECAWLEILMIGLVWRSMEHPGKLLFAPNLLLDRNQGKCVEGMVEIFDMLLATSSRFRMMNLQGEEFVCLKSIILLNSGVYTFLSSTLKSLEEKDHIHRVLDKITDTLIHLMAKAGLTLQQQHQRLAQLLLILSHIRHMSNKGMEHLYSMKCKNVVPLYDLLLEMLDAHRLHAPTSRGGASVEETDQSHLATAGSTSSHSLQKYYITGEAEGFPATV

[2] = molecular target: Beta-3 adrenergic receptor (Homo sapiens, UniProt P13945); test: DRUGMATRIX: Adrenergic beta3 radioligand binding (ligand: [125I] Cyanopindolol); format: cell membranes, HEK293, Membrane; details: hek293; Not Active = under 50% inhibition at 10 µM
[3] = DRUGMATRIX: Glutamate, Kainate radioligand binding (ligand: [3H] Kainic acid); format: cell membranes, Rattus norvegicus, Wistar, Brain, Membrane; details: Not Active = under 50% inhibition at 10 µM
[4] = DRUGMATRIX: Atrial Natriuretic Factor (ANF) radioligand binding (ligand: [125I] ANF (rat)); format: cell membranes, Cavia porcellus, Dunkin-Hartley, Adrenal gland, Membrane; details: Not Active = under 50% inhibition at 10 µM
[5] = molecular target: T4, 5-hydroxytryptamine receptor 1A (Rattus norvegicus, UniProt P19327); format: cell membranes, CHO-K1, Membrane; details: cho-k1; further: in other assays of this panel Not Active means under 50% inhibition at 10 µM
T4 sequence (P19327 whole entry): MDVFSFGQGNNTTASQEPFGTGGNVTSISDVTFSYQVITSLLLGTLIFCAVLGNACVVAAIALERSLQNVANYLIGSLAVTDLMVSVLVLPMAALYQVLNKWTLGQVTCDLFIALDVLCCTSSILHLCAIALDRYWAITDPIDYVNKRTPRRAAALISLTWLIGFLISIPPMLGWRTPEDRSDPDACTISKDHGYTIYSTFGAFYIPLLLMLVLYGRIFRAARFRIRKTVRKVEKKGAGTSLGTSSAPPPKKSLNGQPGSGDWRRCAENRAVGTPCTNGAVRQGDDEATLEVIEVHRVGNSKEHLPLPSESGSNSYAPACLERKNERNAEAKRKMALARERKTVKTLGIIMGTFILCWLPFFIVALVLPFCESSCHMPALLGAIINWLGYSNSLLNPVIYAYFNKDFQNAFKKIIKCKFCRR

Beta-3 adrenergic receptor, sequence (P13945 whole entry): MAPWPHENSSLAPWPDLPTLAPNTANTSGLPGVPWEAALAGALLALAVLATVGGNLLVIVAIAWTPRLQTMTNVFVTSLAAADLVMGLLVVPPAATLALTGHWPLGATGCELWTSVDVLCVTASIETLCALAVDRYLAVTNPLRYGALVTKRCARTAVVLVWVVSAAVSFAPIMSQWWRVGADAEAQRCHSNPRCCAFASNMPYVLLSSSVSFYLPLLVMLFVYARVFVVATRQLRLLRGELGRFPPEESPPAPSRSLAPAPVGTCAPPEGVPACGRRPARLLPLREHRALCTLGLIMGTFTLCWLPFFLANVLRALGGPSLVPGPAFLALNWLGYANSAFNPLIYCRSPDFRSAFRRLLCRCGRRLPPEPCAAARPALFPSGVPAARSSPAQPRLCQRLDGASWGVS

COc1cc(C(=O)NS(=O)(=O)c2ccccc2C)ccc1Cc1cn(C)c2ccc(NC(=O)OC3CCCC3)cc12 [ZAFIRLUKAST]
Not Active: IC50 (Substance-K receptor) | IC50 [1] | IC50 (Estrogen receptor) | IC50 [2] | IC50 [3] | Ki [3] | IC50 [4] | Ki [4] | IC50 [5]

Cc1cn([C@H]2C[C@H](N=[N+]=[N-])[C@@H](CO)O2)c(=O)[nH]c1=O [ZIDOVUDINE]
Not Active: IC50 (Substance-K receptor) | IC50 [1] | IC50 (Estrogen receptor) | IC50 [2] | IC50 [3] | Ki [3] | IC50 [4] | Ki [4] | IC50 [5]

STANNOUS FLUORIDE
Not Active: IC50 (Substance-K receptor) | Ki (Substance-K receptor) | IC50 [1] | Ki [1] | IC50 (Estrogen receptor) | Ki (Estrogen receptor) | IC50 [2] | Ki [2] | IC50 [3] | Ki [3] | IC50 [4] | Ki [4] | IC50 [5] | Ki [5]

THIMEROSAL
Not Active: IC50 (Substance-K receptor) | Ki (Substance-K receptor) | IC50 [1] | Ki [1] | IC50 (Estrogen receptor) | Ki (Estrogen receptor) | IC50 [2] | Ki [2] | IC50 [3] | Ki [3] | IC50 [4] | Ki [4] | IC50 [5] | Ki [5]
